Assay results taken from patent US11052158B2, “Delivery of urea to cells of the macula and retina using liposome constructs” (priority 2016, dated 2021).
Read-outs that look alike come from different tables or passages of the source.

Legend:
[1] = system: eyes of New Zealand white rabbits; conditions: for PVD observations by OCT: OD
Protocol: Five female New Zealand White rabbits were given a single administration of urea solution IVT into both eyes (OU) at doses of 2.5, 5, 10, 25 and 50 mg/eye.
Prior to placement in the study, each animal underwent an ophthalmic examination (slit-lamp biomicroscopy and indirect ophthalmoscopy). Ocular findings were scored according to a modified McDonald-Shadduck Scoring System. The acceptance criteria for placement on study were scores of “0” for all variables.
All procedures were performed using sterile technique. Animals were anesthetized for IVT injections, OCT, and B-Scan imaging with an IM injection of ketamine hydrochloride (50 mg/kg for imaging, 15-30 mg/kg for IVT injections) and xylazine (5 mg/kg). For one animal, anesthesia was prolonged via inhaled isoflurane (1-1.5% in 1.5-2 L/min oxygen) during baseline imaging due to extended duration of imaging. For another animal, inhaled isoflurane (2% in 1.5 L/min oxygen) was used to anesthetize the animal for IVT injections, because the animal had undergone baseline imaging (which included ketamine/xylazine anesthesia) earlier in the same day. One to two drops of topical proparacaine hydrochloride anesthetic (0.5%) were applied to the animal's eyes prior to the surgical procedure.
Prior to IVT injection, eyes were cleaned with Betadine and then rinsed with BSS. Using a ⅝ inch needle, injections were made 3 to 4 mm away from the limbus. Once the needle had been inserted, urea solution or BSS was injected. The needle was removed and the eye rinsed with BSS. Animals were recovered immediately after dosing and monitored during recovery. Triple antibiotic ophthalmic ointment was administered to the eyes during recovery.
Animals were euthanized on Day 35 (±4) and their eyes (whole globe) were collected and submitted for histopathological analysis.
Ophthalmic examinations (slit-lamp biomicroscopy and indirect ophthalmoscopy) were performed on Days −3 or 0 (baseline prior to test/control article administration), 1, 4, 7 or 8, 14, 21, and 35. Day 4 examinations were performed at the beginning of the workday. Day 21 examinations were performed only on Groups 1, 2, and 5. Ocular findings were scored according to a modified McDonald-Shadduck Scoring System. […] Observations included assessment of the development and time course of PVD.
Images of the fundus were taken on Days −3 or 0 (baseline prior to drug or BSS administration), 1, 4, 7 or 8, 14, 21, and 35. Day 4 images were taken at the beginning of the workday. Day 21 images were taken only of Groups 1, 2, and 5. Animals were not anesthetized for imaging.
OCT was performed on Days −3 or 0 (baseline prior to test/control article administration), 1, 4, 7 or 8, 14, 21, and 35. Day 4 images were taken at the beginning of the workday. Day 21 images were taken only of Groups 1, 2, and 5. Animals were anesthetized as described above. A total of 8 images per rabbit per day was acquired.
B-Scan ultrasound images were taken on Days −3 or 0 (baseline prior to test/control article administration) and on Day 35.

[2] = system: eyes of New Zealand white rabbits
Description: Female New Zealand white rabbits were obtained from Western Oregon Rabbit Co. (Philomath, Oreg.) and were housed and cared for in compliance with the regulations of the USDA Animal Welfare Act and under the review and approval of the institution's Animal Care and Use Committee.
Prior to placement on study, each animal underwent an ophthalmic examination (slit-lamp biomicroscopy and indirect ophthalmoscopy). […] The acceptance criteria for placement on study were scores of “0” for all variables.
Six female New Zealand White rabbits (two per subgroup) were administered urea-encapsulated liposome constructs (58 mol % DOPC, 42 mol % cholesterol) intravitreally (IVT) as a single dose into both eyes (OU). Animals were anesthetized with an intramuscular (IM) injection of ketamine hydrochloride (30 mg/kg), xylazine (5 mg/kg), and acepromazine (3 mg/kg) followed by isoflurane by inhalation (1-2.5%) in oxygen (1 L/min). One to two drops of topical proparacaine hydrochloride anesthetic (0.5%) were applied to the animal's eyes prior to the surgical procedure. Animals were kept anesthetized with their heads stabilized for three hours post dose, with one eye facing up and the other eye facing down.
After three hours, a clinical ophthalmic examination was performed, animals were euthanized. Vitreous humor (VH) was collected as 3 fractions. Pupils were dilated using one drop each of 10% phenylephrine and 1% tropicamide. Two 18G needles were inserted into the eye at the 3 o'clock and 9 o'clock position and advanced into the VH, one with the bevel pointed up towards the lens and the other with the bevel pointed down toward the retina. Three hundred μL of VH were drawn up through each needle, after which each needle was removed from the eye. The eye was then harvested and enucleated. Following enucleation, the remaining VH was collected as the third fraction. Samples from each eye in each animal remained separate and were not pooled. The weight of ocular tissues was recorded. Individual VH fractions were weighed separately. VH fractions were centrifuged at 16,100×g at room temperature for 20-30 minutes. The supernatant was separated. Pellets containing liposome constructs and supernatant were snap frozen separately on dry ice and stored at −60 to −80° C. Retina was also collected from these animals, snap frozen on dry ice, and stored at −60 to −80° C.
Two additional animals (one per subgroup) were administered a single or double dose of free urea solution IVT into the right eye (OD) and balanced salt solution (BSS) into the left eye (OS). Animals were anesthetized with an IM injection of ketamine hydrochloride (30 mg/kg) and xylazine (5 mg/kg). One to two drops of topical proparacaine hydrochloride anesthetic (0.5%) were applied to the animal's eyes prior to the surgical procedure.
Clinical ophthalmic examinations, fundus photography, and optical coherence tomography (OCT) were performed in these animals on Days 0-3, 4 (AM and PM), 8 (±1), 14, 21, and 28 post dose. For OCT, pupils were dilated with one drop each of 10% phenylephrine and 1% tropicamide approximately 10-15 minutes prior to imaging. Images were taken using the Spectralis® instrumentation (Heidelberg Engineering, Inc., Heidelberg, Germany).

SMILES: NC(N)=O [urea, Urea]
- PVD in clinical ophthalmic examinations ([1]; 2.5-50 mg/eye IVT, up to Day 35): No evidence of PVD
- PVD observations by OCT ([1]; Group 1, 5 mg urea IVT): Partial PVD on Day 35
- PVD observations by OCT ([1]; Group 2, 10 mg urea IVT): Partial PVD on Day 7 and beyond
- PVD in B-scan images, Day 35 ([1]; Group 4, 50 mg/eye): evidence of PVD in the right eye (OD)
- PVD observations by OCT ([1]; Group 5, 2.5 mg urea IVT): Possible partial PVD on Day 4, none observed
- PVD in B-scan images, Day 35 ([1]; other animals (2.5, 5, 10, 25 mg/eye)): no PVD could be detected
- vitreous clouding (fundus photography) ([2]; 96 and 192 mg/eye IVT, OD): clouding of the OD vitreous from Day 0 through Day 3
- toxicity from Day 3 onward (fundus imaging) ([2]; 96 and 192 mg/eye IVT, OD, at the site of delivery, peaked Days 3-7): severe retinal folding and vascular hemorrhage
- retinal detachment (OCT) ([2]; 96 and 192 mg/eye IVT, peaked between Days 3 and 7, then subsided): retina had detached mostly at the ganglion cell layer
- days on which OCT imaging showed PVD ([2]; Subgroup 2a, 96 mg/eye IVT, OD): Day 3
- days on which OCT imaging showed PVD ([2]; Subgroup 2b, 192 mg/eye IVT, OD): Days 4 (AM and PM), 7, and 14
- time to development of PVD ([2]; free urea 96 mg/eye (single dose) or 192 mg/eye (double dose) IVT, OD): ≤ 2 days
- ocular irritation and swelling after IVT injection ([2]; immediately after IVT injection, resolved over the next few days in surviving animals): ocular irritation and swelling were observed
- adverse effects on body weights and general health ([2]; single IVT dosing, liposome constructs 56-96 mg total urea/eye, free urea 96 or 192 mg/eye): No adverse effects on body weights and no severe adverse effects on general health
